Measured values taken from US20110201642A1, “Bioactive Compounds” (priority 2008, published 2011).
Read-outs that look alike come from different tables or passages of the source.

Experiments:
Type in all cases: cell-based
[1] = tested on: HCT116 (ATCC CCL-247) human colon cancer cell line; assay: MTT cytotoxic assay against HCT116 (96 h)
Method: (§1) Human breast cancer, MCF7 (ATCC HTB-22) and human colon cancer, HCT116 (ATCC CCL-247) cell lines were all maintained in RPMI 1640 (Sigma), supplemented with 10% Foetal Bovine Serum (FBS, PAA Laboratories). Cells of 80-85% confluence were harvested and plated onto 96-flat bottom well plates for experimental use. In all experiments, cells were incubated in a CO2 incubator at 37° C. with 5% CO2 overnight prior to treatment.
(§2) Compounds were tested against MCF7 and HCT116 and incubated for 96 h before cytotoxic assay using the MTT (3-(4,5-dimethylthiazole-2-yl)-2,5-diphenyltetrazolium bromide) assay according to Mosmann (J. Immunol Meth. 65 (1983) 55-63). Plates were read using an Elisa plate reader at 520 nm. Data generated was used to plot a dose response curve. Cytotoxic activity was expressed as the mean concentration of extract required to kill 50% of the cell population (IC50).

[2] = tested on: P388 murine leukemia cell line; assay: Cytotoxicity against P388 murine leukemia cell line; conditions: for IC50: Mus musculus, P388 murine leukemia
Method: The Compounds A1-A5 were assayed against three cell lines: murine leukemia, P388; human breast cancer, MCF7 (ATCC HTB-22); and human colon cancer, HCT116 (ATCC CCL-247).

[3] = tested on: MCF7 (ATCC HTB-22) human breast cancer cell line; assay: MTT cytotoxic assay against MCF7 (96 h); conditions: for IC50: Homo sapiens, MCF7, 96 h
Method: as §1, §2

[4] = Homo sapiens, HCT-116, 96 h, read-out: IC50 (nM) HCT116
[5] = Homo sapiens, HCT-116, 96 h, read-out: IC50 (ng/mL) HCT116

SMILES | IC50 ([1]; HCT-116, HCT116 human colon cancer, MTT, 96 h, read-out: IC50 (ng/mL) HCT116) [ng/mL] | IC50 [1, 4] [nM] | IC50 [1, 5] [ng/mL] | IC50 ([2]; read-out: IC50 (nM) P388) [nM] | IC50 ([2]; read-out: IC50 (ng/mL) P388) [ng/mL] | IC50 ([3]; read-out: IC50 (nM) MCF7) [nM] | IC50 ([3]; read-out: IC50 (ng/mL) MCF7) [ng/mL] | factor between the least active, Compound A2, and the most active, Compound A5 ([2]; P388 data) | IC50 (ng/mL) HCT116 ([1]; HCT116 human colon cancer, MTT, 96 h) [ng/mL] | IC50 (ng/mL) MCF7 ([3]; MCF7 human breast cancer, MTT, 96 h) [ng/mL]
O=c1[nH]cc(F)c(=O)[nH]1 [5-fluorouracil, reference compound] | 910 | – | – | – | – | – | – | – | – | –
C=CC(C)CC1NC(=O)C(C(O)C(C)C)N(C)C(=O)C(C)N(C)C(=O)C(C(C)C)NC(=O)C(C(O)C(C)C)NC(=O)C2CCCCN2C(=O)C(C)N(C)C1=O (stereo not shown) [Compound A1] | – | 5.9 | 4.7 | 3.8 | 3 | 8.1 | 6.5 | – | – | –
CCC(C)C1NC(=O)C(C(O)C(C)C)NC(=O)C2CCCCN2C(=O)C(C)N(C)C(=O)C(CC(C)C)NC(=O)C(C(O)C(C)C)N(C)C(=O)C(C)N(C)C1=O (stereo not shown) [Compound A2] | – | 11.6 | 9.3 | 56 | 45 | 8.3 | 6.6 | – | – | –
C=CC(C)CC1NC(=O)C(C(O)C(C)C)N(C)C(=O)C(C)N(C)C(=O)C(C(C)CC)NC(=O)C(C(O)C(C)C)NC(=O)C2CCCCN2C(=O)C(C)N(C)C1=O (stereo not shown) [Compound A3] | – | 0.3 | 0.2 | 1.3 | 1 | 0.9 | 0.73 | – | – | –
CCC(C)CC1NC(=O)C(C(O)C(C)C)N(C)C(=O)C(C)N(C)C(=O)C(C(C)CC)NC(=O)C(C(O)C(C)C)NC(=O)C2CCCCN2C(=O)C(C)N(C)C1=O (stereo not shown) [Compound A4] | – | 3.9 | 3.1 | 24 | 19 | 7.1 | 5.7 | – | – | –
C=CC(C)CC1NC(=O)C(C(O)C(C)CC)N(C)C(=O)C(C)N(C)C(=O)C(C(C)CC)NC(=O)C(C(O)C(C)C)NC(=O)C2CCCCN2C(=O)C(C)N(C)C1=O (stereo not shown) [Compound A5] | – | 0.3 | 0.2 | 0.13 | 0.1 | 1 | 0.8 | ~450 | – | –
N.N.[Cl][Pt][Cl] [cisplatin, reference compound] | – | – | – | – | – | – | – | – | 1650 | 8705
